Laboratory results from US7122193B1 (priority 1994, dated 2006).

Experiments:
I-A^d class II molecules = I-A^d class II molecules (Mus musculus, UniProt P01921+P04228); type: cell-based
I-E^d class II molecules = I-E^d class II molecules (Mus musculus, UniProt P01904+P01915); type: cell-based
Sequence of I-E^d class II molecules (P01904 26-255 limits assumed): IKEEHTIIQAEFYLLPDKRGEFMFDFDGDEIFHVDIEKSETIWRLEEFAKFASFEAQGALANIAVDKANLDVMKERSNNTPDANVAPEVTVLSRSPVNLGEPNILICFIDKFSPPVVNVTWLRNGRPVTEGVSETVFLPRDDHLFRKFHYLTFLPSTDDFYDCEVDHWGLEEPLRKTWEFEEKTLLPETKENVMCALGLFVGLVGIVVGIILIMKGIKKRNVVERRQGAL
Sequence of I-E^d class II molecules (P01915 27-264 limits assumed): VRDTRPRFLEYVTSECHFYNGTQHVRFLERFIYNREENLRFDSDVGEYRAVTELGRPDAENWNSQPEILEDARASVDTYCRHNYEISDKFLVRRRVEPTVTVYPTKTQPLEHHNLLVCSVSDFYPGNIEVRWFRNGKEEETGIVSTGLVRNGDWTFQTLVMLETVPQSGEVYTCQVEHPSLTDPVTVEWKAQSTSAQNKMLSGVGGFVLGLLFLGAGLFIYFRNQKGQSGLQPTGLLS

Sequence of I-A^d class II molecules (P04228 24-256 limits assumed): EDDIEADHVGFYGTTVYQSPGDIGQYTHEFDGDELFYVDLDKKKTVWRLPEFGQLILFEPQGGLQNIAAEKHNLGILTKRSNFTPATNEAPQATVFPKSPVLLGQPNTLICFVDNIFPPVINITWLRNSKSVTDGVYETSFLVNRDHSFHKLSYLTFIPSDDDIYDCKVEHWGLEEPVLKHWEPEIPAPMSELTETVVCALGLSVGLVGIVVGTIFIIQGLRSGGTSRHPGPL
Sequence of I-A^d class II molecules (P01921 28-265 limits assumed): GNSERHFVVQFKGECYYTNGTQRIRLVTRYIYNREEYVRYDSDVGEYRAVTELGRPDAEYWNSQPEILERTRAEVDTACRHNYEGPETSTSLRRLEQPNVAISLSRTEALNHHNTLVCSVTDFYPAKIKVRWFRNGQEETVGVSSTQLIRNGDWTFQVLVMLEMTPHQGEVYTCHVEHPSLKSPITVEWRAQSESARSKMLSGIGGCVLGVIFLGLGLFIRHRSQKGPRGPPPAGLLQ

Q: With “CH3CO-(D)Thr-(D)Asp-(D)Lys-(D)Tyr-(D)Thr-(D)Ile-(D)Lys-(D)Trp-(D)Val-(D)Ala-(D)Phe-(D)Leu-(D)Lys-NH2” as the substance, how does the “binding to I-A^d transfected fibroblasts, in words” value (I-A^d class II molecules) read?
A: Its value is “Neither the L- nor the retro-inverso peptides bound”.

Q: What about the “inhibition (of IL-2 production / binding of cI 12–26)” value (I-E^d class II molecules) of the same substance?
A: The value was “up to 56%”.
